Data: patent publication US20110105326A1, “Method for Enhancing the Rainfastness of Glyphosate” (BASF SE, priority 2008, published 2011)

Experiments:
Assay type in all cases: in vivo
[1] = test system: Echinochloa colonum (ECHCO); assay: herbicidal action with/without simulated rainfall after treatment, Echinochloa colonum; settings: 1500 g/ha diuron, 1080 g/ha glyphosate; for herbicidal action against Echinochloa colonum (ECHCO): control without simulated rainfall, Example 15.1
Procedure: (§1) The enhancement of the rainfastness of glyphosate was determined via the herbicidal activity of the mixture comprising glyphosate and the respective rainfastness enhancing herbicidal component B as well as of the single herbicidal components in relation to simulated rainfall at different time intervals.
(§2) The evaluation of the damage caused by the method and the compositions the according to the present invention and the single herbicidal components was carried out using a scale from 0 to 100%, compared to the untreated control plots. Here, 0 means no damage and 100 means complete destruction of the plants of a respective weed or crop species.
(§3) The application was performed with a fixed spayer system with air pressurization and with a tank spray volume of two liters. The speed of the spray device over the plants was adjusted for a spray volume of 200 I/ha. The spray device was a spray barr with four nozzles from the type Teejet XR 11002VS with a space of 50 cm between each nozzle.
(§4) The application was performed at a weed stage of 6 to 8 leaves. After the application of the formulated herbicides the leaves were washed through rain of 20 mm using a fixed rain simulator system at following time interval: 15 min, 30 min, 1, 2, 3, 4 and 6 hours after treatment.

[2] = test system: Brachiaria decumbens (BRADE); assay: herbicidal action with/without simulated rainfall after treatment, Brachiaria decumbens; settings: 1500 g/ha diuron, 1080 g/ha glyphosate; for herbicidal action against Brachiaria decumbens (BRADE): control without simulated rainfall, Example 17.1
Procedure: as §1, §2, §3, §4

[3] = test system: Ipomoea grandifolia (IPOGR); assay: herbicidal action with/without simulated rainfall after treatment, Ipomoea grandifolia; settings: 1500 g/ha diuron, 1080 g/ha glyphosate; for herbicidal action against Ipomoea grandifolia (IPOGR): control without simulated rainfall, Example 16.1
Procedure: as §1, §2, §3, §4

Structure (SMILES): CN(C)C(=O)Nc1ccc(Cl)c(Cl)c1 [Diuron, diuron]
- herbicidal action against Echinochloa colonum (ECHCO) ([1]; 1 DAA): 0
- herbicidal action against Echinochloa colonum (ECHCO) ([1]; 2 DAA): 0
- herbicidal action against Echinochloa colonum (ECHCO) ([1]; 3 DAA): 2.66
- herbicidal action against Echinochloa colonum (ECHCO) ([1]; 7 DAA): 61
- herbicidal action against ECHCO ([1]; simulated rainfall 30 min after treatment, 1 DAA, Example 15.2): 0
- herbicidal action against ECHCO ([1]; simulated rainfall 30 min after treatment, 2 DAA, Example 15.2): 0
- herbicidal action against ECHCO ([1]; simulated rainfall 30 min after treatment, 3 DAA, Example 15.2): 6
- herbicidal action against ECHCO ([1]; simulated rainfall 30 min after treatment, 7 DAA, Example 15.2): 75.33
- herbicidal action against ECHCO ([1]; simulated rainfall 2 hours after treatment, 1 DAA, Example 15.3): 0
- herbicidal action against ECHCO ([1]; simulated rainfall 2 hours after treatment, 2 DAA, Example 15.3): 0
- herbicidal action against ECHCO ([1]; simulated rainfall 2 hours after treatment, 3 DAA, Example 15.3): 1.66
- herbicidal action against ECHCO ([1]; simulated rainfall 2 hours after treatment, 7 DAA, Example 15.3): 58.33
- herbicidal action against Brachiaria decumbens (BRADE) ([2]; 1 DAA): 0
- herbicidal action against Brachiaria decumbens (BRADE) ([2]; 2 DAA): 0
- herbicidal action against Brachiaria decumbens (BRADE) ([2]; 3 DAA): 0
- herbicidal action against Brachiaria decumbens (BRADE) ([2]; 7 DAA): 11
- herbicidal action against Brachiaria decumbens (BRADE) ([2]; 14 DAA): 78.33
- herbicidal action against BRADE ([2]; simulated rainfall 2 hours after treatment, 1 DAA, Example 17.2): 0
- herbicidal action against BRADE ([2]; simulated rainfall 2 hours after treatment, 2 DAA, Example 17.2): 0
- herbicidal action against BRADE ([2]; simulated rainfall 2 hours after treatment, 3 DAA, Example 17.2): 0
- herbicidal action against BRADE ([2]; simulated rainfall 2 hours after treatment, 7 DAA, Example 17.2): 56
- herbicidal action against BRADE ([2]; simulated rainfall 2 hours after treatment, 14 DAA, Example 17.2): 100
- herbicidal action against BRADE ([2]; simulated rainfall 6 hours after treatment, 1 DAA, Example 17.3): 0
- herbicidal action against BRADE ([2]; simulated rainfall 6 hours after treatment, 2 DAA, Example 17.3): 0
- herbicidal action against BRADE ([2]; simulated rainfall 6 hours after treatment, 3 DAA, Example 17.3): 0
- herbicidal action against BRADE ([2]; simulated rainfall 6 hours after treatment, 7 DAA, Example 17.3): 30
- herbicidal action against BRADE ([2]; simulated rainfall 6 hours after treatment, 14 DAA, Example 17.3): 100
- herbicidal action against Ipomoea grandifolia (IPOGR) ([3]; 1 DAA): 0
- herbicidal action against Ipomoea grandifolia (IPOGR) ([3]; 2 DAA): 0
- herbicidal action against Ipomoea grandifolia (IPOGR) ([3]; 3 DAA): 1.33
- herbicidal action against Ipomoea grandifolia (IPOGR) ([3]; 7 DAA): 7.33
- herbicidal action against IPOGR ([3]; simulated rainfall 15 min after treatment, 1 DAA, Example 16.2): 0
- herbicidal action against IPOGR ([3]; simulated rainfall 15 min after treatment, 2 DAA, Example 16.2): 1
- herbicidal action against IPOGR ([3]; simulated rainfall 15 min after treatment, 3 DAA, Example 16.2): 3.33
- herbicidal action against IPOGR ([3]; simulated rainfall 15 min after treatment, 7 DAA, Example 16.2): 21
- herbicidal action against IPOGR ([3]; simulated rainfall 30 min after treatment, 1 DAA, Example 16.3): 0
- herbicidal action against IPOGR ([3]; simulated rainfall 30 min after treatment, 2 DAA, Example 16.3): 0
- herbicidal action against IPOGR ([3]; simulated rainfall 30 min after treatment, 3 DAA, Example 16.3): 3
- herbicidal action against IPOGR ([3]; simulated rainfall 30 min after treatment, 7 DAA, Example 16.3): 16.66
- herbicidal action against IPOGR ([3]; simulated rainfall 2 hours after treatment, 1 DAA, Example 16.4): 0
- herbicidal action against IPOGR ([3]; simulated rainfall 2 hours after treatment, 2 DAA, Example 16.4): 0
- herbicidal action against IPOGR ([3]; simulated rainfall 2 hours after treatment, 3 DAA, Example 16.4): 0.33
- herbicidal action against IPOGR ([3]; simulated rainfall 2 hours after treatment, 7 DAA, Example 16.4): 11.66
- herbicidal action against IPOGR ([3]; simulated rainfall 6 hours after treatment, 1 DAA, Example 16.5): 0
- herbicidal action against IPOGR ([3]; simulated rainfall 6 hours after treatment, 2 DAA, Example 16.5): 1
- herbicidal action against IPOGR ([3]; simulated rainfall 6 hours after treatment, 3 DAA, Example 16.5): 2
- herbicidal action against IPOGR ([3]; simulated rainfall 6 hours after treatment, 7 DAA, Example 16.5): 25.55
